These molecules were tested against T1, human PDE2A1 (Homo sapiens, UniProt O00408) (assay: IMAP FP PDE selectivity panel, human PDE2A1). Details: Lab B; read-out: Human PDE2 Ki (nM) Lab B.
T1 construct: GST; purchased BPS Bioscience (San Diego, Calif.) 60020; host or cells: insect cells
Type: biochemical
Description: Selectivity for PDE2, as compared to other PDE families, was assessed using the IMAP® technology. Human PDE10A2 enzyme was prepared from cytosolic fractions of transiently transfected HEK cells.
Assays for PDE 1 through 11 were performed in parallel at room temperature in 384-well microtiter plates with an incubation volume of 20.2 μL. Solutions of test compounds were prepared in DMSO and serially diluted with DMSO to yield 30 μL of each of ten solutions differing by 3-fold in concentration, at 32 serial dilutions per plate. […] A Labcyte POD 810 (Labcyte, Sunnyvale, Calif.) was used to dispense 200 nL from each well of the titration plate to make eleven copies of the assay plate for each titration, one copy for each PDE enzyme. A solution of each enzyme (dilution from aliquots, sufficient to produce 20% substrate conversion) and a separate solution of FAM-labeled cAMP or FAM-labeled cGMP from Molecular Devices (Sunnyvale, Calif., product # R7506 or cGMP#R7508), at a final concentration of 50 nM were made in the assay buffer (10 mM Tris HCl, pH 7.2, 10 mM MgCl2, 0.05% NaN3 0.01% Tween-20, and 1 mM DTT). Note that the substrate for PDE2 is 50 nM FAM cAMP containing 1000 nM of cGMP. The enzyme and the substrate were then added to the assay plates in two consecutive additions of 10 μL and then shaken to mix. The reaction was allowed to proceed at room temperature for 60 minutes. A binding solution was then made from the kit components, comprised of 80% Solution A, 20% Solution B and binding reagent at a volume of 1/600 the total binding solution. The enzymatic reaction was stopped by addition of 60 μL of the binding solution to each well of the assay plate. The plates were sealed and shaken for 10 seconds. The plates were incubated at room temperature for one hour, then the parallel and perpendicular fluorescence was measured using a Tecan Genios Pro plate reader (Tecan, Switzerland). […] The intrinsic PDE2 inhibitory activity of a compound which may be used in accordance with the present invention may be determined by these assays.

T1 sequence (O00408 1-920 isoform O00408-2): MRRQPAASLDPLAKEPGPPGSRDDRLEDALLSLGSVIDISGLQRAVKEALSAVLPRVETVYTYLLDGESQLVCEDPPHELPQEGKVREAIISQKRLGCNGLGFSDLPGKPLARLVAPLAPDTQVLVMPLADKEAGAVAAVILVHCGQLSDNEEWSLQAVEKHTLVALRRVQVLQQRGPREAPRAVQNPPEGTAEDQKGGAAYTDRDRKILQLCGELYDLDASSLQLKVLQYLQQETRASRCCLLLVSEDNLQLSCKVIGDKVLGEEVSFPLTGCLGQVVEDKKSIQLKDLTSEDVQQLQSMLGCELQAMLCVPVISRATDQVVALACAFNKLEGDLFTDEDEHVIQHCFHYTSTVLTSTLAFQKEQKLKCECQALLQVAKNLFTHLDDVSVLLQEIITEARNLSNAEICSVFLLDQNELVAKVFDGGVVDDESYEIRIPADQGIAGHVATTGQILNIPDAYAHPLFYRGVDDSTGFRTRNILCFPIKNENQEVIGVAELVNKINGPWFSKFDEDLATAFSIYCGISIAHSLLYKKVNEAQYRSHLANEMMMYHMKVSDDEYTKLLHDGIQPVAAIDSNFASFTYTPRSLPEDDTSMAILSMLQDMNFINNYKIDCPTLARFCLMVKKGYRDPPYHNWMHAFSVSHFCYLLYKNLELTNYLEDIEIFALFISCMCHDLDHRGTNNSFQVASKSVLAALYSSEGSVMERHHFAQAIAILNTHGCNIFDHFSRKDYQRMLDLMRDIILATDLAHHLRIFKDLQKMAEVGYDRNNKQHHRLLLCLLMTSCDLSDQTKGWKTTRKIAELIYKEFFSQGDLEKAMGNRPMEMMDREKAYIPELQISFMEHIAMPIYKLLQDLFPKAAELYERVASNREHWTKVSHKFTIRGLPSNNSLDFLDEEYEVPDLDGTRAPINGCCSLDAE

| Compound | Ki |
| --- | --- |
| Cc1cc(NC(c2ccc(OC(F)(F)F)c(F)c2)C(C)(C)O)n2nc(C)nc2n1 (single isomer, unassigned) [Example 133, (1R or S)-1-[(2,5-Dimethyl[1,2,4]triazolo[1,5-a]pyrimidin-7-yl)amino]-1-[3-fluoro-4-(tri-fluoromethoxy)phenyl]-2-methylpropan-2-ol] | 18 nM |
| Cc1cc(NC(c2ccc(OC(F)(F)F)cc2F)C(C)(C)O)n2nc(C)nc2n1 (single isomer, unassigned) [Example 134, (1S or R)-1-[(2,5-Dimethyl[1,2,4]triazolo[1,5-a]pyrimidin-7-yl)amino]-1-[2-fluoro-4-(tri-fluoromethoxy)phenyl]-2-methylpropan-2-ol] | > 2960 nM |
| Cc1cc(NC(c2ccc(OC(F)(F)F)cc2F)C(C)(C)O)n2nc(C)nc2n1 (single isomer, unassigned) [Example 135, (1R or S)-1-[(2,5-Dimethyl[1,2,4]triazolo[1,5-a]pyrimidin-7-yl)amino]-1-[2-fluoro-4-(tri-fluoromethoxy)phenyl]-2-methylpropan-2-ol] | 30 nM |
| CC(C)c1cc(NC(c2ccc(OC(F)(F)F)cc2F)C(C)(C)O)n2ncnc2n1 (single isomer, unassigned) [Example 136, (1S or R)-1-[2-Fluoro-4-(trifluoro-methoxy)phenyl]-2-methyl-1-{[5-(1-methylethyl) [1,2,4]triazolo [1,5-a]pyrimidin-7-yl]amino} propan-2-ol] | > 2960 nM |
| CC(C)c1cc(NC(c2ccc(OC(F)(F)F)cc2F)C(C)(C)O)n2ncnc2n1 (single isomer, unassigned) [Example 137, (1R or S)-1-[2-Fluoro-4-(trifluoro-methoxy)phenyl]-2-methyl-1-{[5-(1-methylethyl) [1,2,4]triazolo [1,5-a]pyrimidin-7-yl]amino} propan-2-ol] | 436 nM |
| CC(C)c1cc(NC(c2ccc(OC(F)(F)F)c(F)c2)C(C)(C)O)n2ncnc2n1 (single isomer, unassigned) [Example 138, (1S or R)-1-[3-Fluoro-4-(trifluoro-methoxy)phenyl]-2-methyl-1-{[5-(1-methylethyl) [1,2,4]triazolo [1,5-a]pyrimidin-7-yl]amino} propan-2-ol] | ~1570 nM |
| CC(C)c1cc(NC(c2ccc(OC(F)(F)F)c(F)c2)C(C)(C)O)n2ncnc2n1 (single isomer, unassigned) [Example 139, (1R or S)-1-[3-Fluoro-4-(trifluoro-methoxy)phenyl]-2-methyl-1-{[5-(1-methylethyl) [1,2,4]triazolo [1,5-a]pyrimidin-7-yl]amino} propan-2-ol] | > 2960 nM |
| CC(C)(O)C(Nc1cc(C2CC2)nc2ncnn12)c1ccc(OC(F)(F)F)c(F)c1 (single isomer, unassigned) [Example 140, (1S or R)-1-[(5- Cyclopropyl [1,2,4]triazolo [1,5-a]pyrimidin-7-yl)amino]-1-[3-fluoro-4-(trifluoro-methoxy)phenyl]-2-methylpropan-2-ol] | > 2960 nM |
| CC(C)(O)C(Nc1cc(C2CC2)nc2ncnn12)c1ccc(OC(F)(F)F)c(F)c1 (single isomer, unassigned) [Example 141, (1R or S)-1-[(5- Cyclopropyl [1,2,4]triazolo [1,5-a]pyrimidin-7-yl)amino]-1-[3-fluoro-4-(trifluoro-methoxy)phenyl]-2-methylpropan-2-ol] | 877 nM |
| CC(C)(O)C(Nc1cc(C2CC2)nc2ncnn12)c1ccc(OC(F)(F)F)cc1F (single isomer, unassigned) [Example 142, (1S or R)-1-[(5- Cyclopropyl [1,2,4]triazolo [1,5-a]pyrimidin-7-yl)amino]-1-[2-fluoro-4-(trifluoro-methoxy)phenyl]-2-methylpropan-2-ol] | > 2960 nM |
| CC(C)(O)C(Nc1cc(C2CC2)nc2ncnn12)c1ccc(OC(F)(F)F)cc1F (single isomer, unassigned) [Example 143, (1R or S)-1-[(5- Cyclopropyl [1,2,4]triazolo [1,5-a]pyrimidin-7-yl)amino)-1-[2-fluoro-4-(trifluoro-methoxy)phenyl]-2-methylpropan-2-ol] | 97 nM |
| CC(C)(O)C(Nc1cc(C2CC2)nc2ncnn12)c1ccc(S(F)(F)(F)(F)F)cc1 (single isomer, unassigned) [Example 144, (1S or R)-1-[(5- Cyclopropyl [1,2,4]triazolo [1,5-a]pyrimidin-7-yl)amino]-2-methyl-1-[4-(pentafluoro-λ^6-sulfanyl)phenyl]propan-2-ol] | > 2960 nM |
| CC(C)(O)C(Nc1cc(C2CC2)nc2ncnn12)c1ccc(S(F)(F)(F)(F)F)cc1 (single isomer, unassigned) [Example 145, (1R or S)-1-[(5- Cyclopropyl [1,2,4]triazolo [1,5-a]pyrimidin-7-yl)amino]-2-methyl-1-[4-(pentafluoro-λ^6-sulfanyl)phenyl]propan-2-ol] | 25 nM |
| CC(C)(C)c1cc(NC(c2ccc(OC(F)(F)F)c(F)c2)C(C)(C)O)n2ncnc2n1 (single isomer, unassigned) [Example 146, (1S or R)-1-[(5-tert-Butyl[1,2,4]triazolo[1,5-a]pyrimidin-7-yl)amino]-1-[3-fluoro-4-(trifluoro-methoxy)phenyl]-2-methylpropan-2-ol] | > 2960 nM |
| CC(C)(C)c1cc(NC(c2ccc(OC(F)(F)F)c(F)c2)C(C)(C)O)n2ncnc2n1 (single isomer, unassigned) [Example 147, (1R or S)-1-[(5-tert-Butyl[1,2,4]triazolo[1,5-a]pyrimidin-7-yl)amino]-1-[3-fluoro-4-(trifluoro-methoxy)phenyl]-2-methylpropan-2-ol] | > 2960 nM |
| CC(C)(C)c1cc(NC(c2ccc(OC(F)(F)F)cc2F)C(C)(C)O)n2ncnc2n1 (single isomer, unassigned) [Example 148, (1S or R)-1-[(5-tert-butyl[1,2,4]triazolo[1,5-a]pyrimidin-7-yl)amino]-1-[2-fluoro-4-(trifluoro-methoxy)phenyl]-2-methylpropan-2-ol] | > 2960 nM |
| CC(C)(C)c1cc(NC(c2ccc(OC(F)(F)F)cc2F)C(C)(C)O)n2ncnc2n1 (single isomer, unassigned) [Example 149, (1R or S)-1-[(5-tert-butyl[1,2,4]triazolo[1,5-a]pyrimidin-7-yl)amino]-1-[2-fluoro-4-(trifluoro-methoxy)phenyl]-2-methylpropan-2-ol] | > 2960 nM |
| CC(C)(C)c1cc(NC(c2ccc(S(F)(F)(F)(F)F)cc2)C(C)(C)O)n2ncnc2n1 (single isomer, unassigned) [Example 150, (1S or R)-1-[(5-tert-Butyl[1,2,4]triazolo[1,5-a]pyrimidin-7-yl)amino]-2-methyl-1-[4-(pentafluoro-λ^6-sulfanyl)phenyl] propan-2-ol] | > 2960 nM |
| CC(C)(C)c1cc(NC(c2ccc(S(F)(F)(F)(F)F)cc2)C(C)(C)O)n2ncnc2n1 (single isomer, unassigned) [Example 151, (1R or S)-1-[(5-tert-Butyl[1,2,4]triazolol[1,5-a]pyrimidin-7-yl)amino]-2-methyl-1-[4-(pentafluoro-λ^6-sulfanyl)phenyl] propan-2-ol] | > 2960 nM |
| CC(C)(O)C(Nc1cc(C(F)(F)F)nc2ncnn12)c1ccc(C(F)(F)F)cc1Cl (single isomer, unassigned) [Example 159, (1S or R)-1-[2-Chloro-4-(trifluoromethyl)phenyl]-2-methyl-1-{[5-(trifluoromethyl)[1,2,4]triazolo[1,5-a]pyrimidin-7-yl]amino}propan-2-ol] | > 2960 nM |
| CC(C)(O)C(Nc1cc(C(F)(F)F)nc2ncnn12)c1ccc(C(F)(F)F)cc1Cl (single isomer, unassigned) [Example 160, (1R or S)-1-[2-chloro-4-(trifluoromethyl)phenyl]-2-methyl-1-{[5-(trifluoromethyl)[1,2,4]triazolo[1,5-a]pyrimidin-7-yl]amino}propan-2-ol] | 81 nM |
| CC(C)(C)c1ccc(C(Nc2cc(C(F)(F)F)nc3ncnn23)C(C)(C)O)cc1 (single isomer, unassigned) [Example 161, (1S or S)-1-(4-tert-Butylphenyl)-2-methyl-1-{[5-(trifluoromethyl) [1,2,4]triazolo [1,5-a]pyrimidin-7-yl]amino} propan-2-ol] | 19 nM |
| CC(C)(C)c1ccc(C(Nc2cc(C(F)(F)F)nc3ncnn23)C(C)(C)O)cc1 (single isomer, unassigned) [Example 162, (1R or S)-1-(4-tert-Butylphenyl)-2-methyl-1-{[5-(trifluoromethyl) [1,2,4]triazolo [1,5-a]pyrimidin-7-yl]amino} propan-2-ol] | ~2050 nM |
